The numbers were not newly measured in patent publication US8440231B2, “Swellable particles for drug delivery” (STC.UNM, priority 2006, dated 2013), which cites them from elsewhere.

On to `CC(=O)N[C@@H](CS)C(=O)O` [NACS, N-acetylcysteine], for which the soluble in water is 100 mg/mL.
